These results are taken from the supplement of paper PMC11208160.

This series is described as follows: recombinant barcode read abundance after kanamycin selection (control-corrected) (log10(CPM+1)); higher = more efficient recombination; sequences stand for … in AGTGCAGAGAAAATCGGCCAGTTTTCTCTGCCTGCAGTCCGCATGCCGT…AGATTTATGCAGCGGACTGCCTTTCTCCCAAAGTGATAAACCGGACAGTATCATGGACCGGTTTTCCCGGTAATCCGTATTTGCAAGGTTGGTTTCACT; site = the 11-nt target. The gist of the method:
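This pooled E. coli screen matched targets with IS621 bridge RNA target-binding loops. Plating was done in duplicate on chloramphenicol/ampicillin LB agar as a control and on chloramphenicol/ampicillin/kanamycin plus 0.1 mM IPTG. Recombination efficiency reflects barcode counts at recombinant junctions as counts per million, averaged and control-corrected. The figures are log10(CPM+1).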
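Note: IS621 recombinase and bridge RNA in Escherichia coli cells.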

Take “GTAACCTCTTGGGTTCTAACCTGTTGCTC (site GTCACCTCTTA)”: the “recombinant barcode read abundance (log10)” value came out at 0.00986.
Next, “GTAACTACTTGGGTTCTAACCTGTTGCTC (site ACGTAACCTAG)”: 0.0897; “GTAACTACTTGGGTTCTAACCTGTTGCTC (site GTAACTACTGA)”: 0.475; “GTAAGAACTTGGGTTCTAACCTGTTGCTT (site GTAAGAACTAA)”: 0.629.
With “GTAAGAACTTGGGTTCTAACCTGTTGCTT (site GTAAGCACTAA)” the figure was 0.0763; with “GTAAGAACTTGGGTTCTAACCTGTTGCTT (site GTAAGGACTAA)”, 0.0891; with “GTAAGAACTTGGGTTCTAACCTGTTGCTT (site GTAAGTACTAA)”, 0.03.
Turning to “GTAAGCACTTGGGTTCTAACCTGTTGCTT (site GTAAGAACTAA)”, the “recombinant barcode read abundance (log10)” value was 0.0561.
Consider “GTAAGCACTTGGGTTCTAACCTGTTGCTT (site GTAAGCACTAA)”, for which the “recombinant barcode read abundance (log10)” value was 0.18.
Consider “GTAAGCACTTGGGTTCTAACCTGTTGCTT (site GTAAGGACTAA)”, for which the “recombinant barcode read abundance (log10)” value worked out at 0.0207.
As for “GTAAGCACTTGGGTTCTAACCTGTTGCTT (site GTAAGTACTAA)”, the “recombinant barcode read abundance (log10)” value turned out to be 0.242.
With “GTAAGCTCTTGGGTTCTAACCTGTTGCCT (site ATAAGCTCTAG)” the figure was 1.34.
Next, “GTAAGCTCTTGGGTTCTAACCTGTTGCCT (site CTAAGCTCTAG)”: 0.349.
Next, “GTAAGCTCTTGGGTTCTAACCTGTTGCCT (site GTAAGCTCTAG)”: 2.15.
Regarding “GTAAGCTCTTGGGTTCTAACCTGTTGCCT (site TTAAGCTCTAG)”, the “recombinant barcode read abundance (log10)” value is 0.932.
Next, “GTAAGTACTTGGGTTCTAACCTGTTGCGG (site AGAAGTACTCC)”: 0; “GTAAGTACTTGGGTTCTAACCTGTTGCGG (site GTAAGTACTCC)”: 2.06; “GTACAAGCTTGGGTTCTAACCTGTTGCCT (site AGGAGTCCTCT)”: 0.102.
With “GTACAAGCTTGGGTTCTAACCTGTTGCCT (site GTACAAGCTAG)” the figure was 1.08.
Next, “GTACCGCCTTGGGTTCTAACCTGTTGCCT (site GTACAGCCTAG)”: 0.483; “GTACCGCCTTGGGTTCTAACCTGTTGCCT (site GTACCGCCTAG)”: 1.01; “GTACCGCCTTGGGTTCTAACCTGTTGCCT (site GTACGGCCTAG)”: 0.122.
Take “GTACCGCCTTGGGTTCTAACCTGTTGCCT (site GTACTGCCTAG)”: the “recombinant barcode read abundance (log10)” value stood at 0.29.
Next, “GTACCTTCTTGGGTTCTAACCTGTTGCCT (site GGAGCTTCTAG)”: 0.0858; “GTACCTTCTTGGGTTCTAACCTGTTGCCT (site GTACCTTCTAG)”: 1.08; “GTACGATCTTGGGTTCTAACCTGTTGCAA (site GTACGATCTTT)”: 0.962.
Take “GTACGATCTTGGGTTCTAACCTGTTGCAA (site GTACGGTCTAT)”: the “recombinant barcode read abundance (log10)” value was determined as 0.291.
Next, “GTACGATCTTGGGTTCTAACCTGTTGCGG (site CCTTCTCCTAT)”: 0.0115; “GTACGATCTTGGGTTCTAACCTGTTGCGG (site GTACGATCTCC)”: 0.753; “GTACGGCCTTGGGTTCTAACCTGTTGCCT (site GTACAGCCTAG)”: 0.453.
Turning to “GTACGGCCTTGGGTTCTAACCTGTTGCCT (site GTACCGCCTAG)”, the “recombinant barcode read abundance (log10)” value turned out to be 0.0984.
As to “GTACGGCCTTGGGTTCTAACCTGTTGCCT (site GTACGGCCTAG)”, the “recombinant barcode read abundance (log10)” value stood at 0.319.
Regarding “GTACGGCCTTGGGTTCTAACCTGTTGCCT (site GTACTGCCTAG)”, the “recombinant barcode read abundance (log10)” value amounted to 0.0887.
With “GTACTCTCTTGGGTTCTAACCTGTTGCCA (site GAACTGTCTTG)” the figure was 0.143.
With “GTACTCTCTTGGGTTCTAACCTGTTGCCA (site GTACTCTCTTG)” the figure was 1.38; with “GTAGCACCTTGGGTTCTAACCTGTTGCTT (site GTAGCACCTAA)”, 1.72; with “GTAGCACCTTGGGTTCTAACCTGTTGCTT (site GTATGACCTAA)”, 0.323.
With “GTAGGTCCTTGGGTTCTAACCTGTTGCCG (site GTAGGTCCTCG)” the figure was 2.48; with “GTAGGTCCTTGGGTTCTAACCTGTTGCCG (site TACAACACTAC)”, 0.0369.
Take “GTAGTAACTTGGGTTCTAACCTGTTGCCT (site GTAGTAACTAG)”: the “recombinant barcode read abundance (log10)” value turned out to be 2.12.
With “GTAGTAACTTGGGTTCTAACCTGTTGCCT (site GTAGTACCTAG)” the figure was 0.104.
With “GTAGTAACTTGGGTTCTAACCTGTTGCCT (site GTAGTAGCTAG)” the figure was 0.206.
Next, “GTAGTAACTTGGGTTCTAACCTGTTGCCT (site GTAGTATCTAG)”: 0.0374; “GTAGTTCCTTGGGTTCTAACCTGTTGCCT (site GTAGTTCCTAG)”: 1.6; “GTAGTTCCTTGGGTTCTAACCTGTTGCCT (site GTCGTTCCTAG)”: 0.0557.
On to “GTATACCCTTGGGTTCTAACCTGTTGCCA (site GTATACCCTAT)”, for which the “recombinant barcode read abundance (log10)” value was found to be 0.498.
With “GTATACCCTTGGGTTCTAACCTGTTGCCA (site GTATACCCTTG)” the figure was 1.27; with “GTATATACTTGGGTTCTAACCTGTTGCCT (site GTATATACTAG)”, 0.902.
As for “GTATATACTTGGGTTCTAACCTGTTGCCT (site GTCTATACTAG)”, the “recombinant barcode read abundance (log10)” value came out at 0.112.
With “GTATATACTTGGGTTCTAACCTGTTGCCT (site GTGTATACTAG)”, the “recombinant barcode read abundance (log10)” value is 0.241.
With “GTATATACTTGGGTTCTAACCTGTTGCCT (site GTTTATACTAG)” the figure was 0.00506; with “GTATCAGCTTGGGTTCTAACCTGTTGCCT (site GTATCAACTAG)”, 0.181.
Consider “GTATCAGCTTGGGTTCTAACCTGTTGCCT (site GTATCACCTAG)”, for which the “recombinant barcode read abundance (log10)” value came out at 0.226.
As to “GTATCAGCTTGGGTTCTAACCTGTTGCCT (site GTATCAGCTAG)”, the “recombinant barcode read abundance (log10)” value is 1.25.
With “GTATCAGCTTGGGTTCTAACCTGTTGCCT (site GTATCATCTAG)” the figure was 0.0176; with “GTATGAACTTGGGTTCTAACCTGTTGCCT (site GTATGAACTAG)”, 1.44; with “GTATGAACTTGGGTTCTAACCTGTTGCCT (site GTATGACCTAG)”, 0.121.
Next, “GTATGAACTTGGGTTCTAACCTGTTGCCT (site GTATGAGCTAG)”: 0.384; “GTATGAACTTGGGTTCTAACCTGTTGCCT (site GTATGATCTAG)”: 0.119; “GTATGACCTTGGGTTCTAACCTGTTGCTT (site GTAGCACCTAA)”: 0.0633.
Next, “GTATGACCTTGGGTTCTAACCTGTTGCTT (site GTATGACCTAA)”: 1.54.
“GTATGAGCTTGGGTTCTAACCTGTTGCTG (site ATTTGAGCTCA)”: the “recombinant barcode read abundance (log10)” value turned out to be 0.288.
Take “GTATGAGCTTGGGTTCTAACCTGTTGCTG (site GTATGAGCTCA)”: the “recombinant barcode read abundance (log10)” value was 1.51.
With “GTATGATCTTGGGTTCTAACCTGTTGCAT (site GTATGATCTAT)” the figure was 0.807; with “GTATGATCTTGGGTTCTAACCTGTTGCAT (site GTATGTACTAT)”, 0.106; with “GTATGATCTTGGGTTCTAACCTGTTGCCT (site GTATGAACTAG)”, 0.026.
Next, “GTATGATCTTGGGTTCTAACCTGTTGCCT (site GTATGACCTAG)”: 0.0755; “GTATGATCTTGGGTTCTAACCTGTTGCCT (site GTATGAGCTAG)”: 0.742.
Next, “GTATGATCTTGGGTTCTAACCTGTTGCCT (site GTATGATCTAG)”: 1.45.
As for “GTATGGACTTGGGTTCTAACCTGTTGCAA (site CATCAAGCTAG)”, the “recombinant barcode read abundance (log10)” value was 0.138.
For “GTATGGACTTGGGTTCTAACCTGTTGCAA (site GTATGGACTTT)”, the “recombinant barcode read abundance (log10)” value is 1.32.
With “GTATGTGCTTGGGTTCTAACCTGTTGCGG (site GTATGAGCTCC)” the figure was 0.689; with “GTATGTGCTTGGGTTCTAACCTGTTGCGG (site GTATGTGCTCC)”, 2.84; with “GTATTTCCTTGGGTTCTAACCTGTTGCTT (site GTATCTCCTAA)”, 0.0837.
With “GTATTTCCTTGGGTTCTAACCTGTTGCTT (site GTATTTCCTAA)” the figure was 0.782; with “GTCAAGACTTGGGTTCTAACCTGTTGCCA (site GTCAAGACTCG)”, 0.3.
For “GTCAAGACTTGGGTTCTAACCTGTTGCCA (site GTCAAGACTTG)”, the “recombinant barcode read abundance (log10)” value came to 1.03.
